# Earlier results in patent US20090255536A1, “Biofilm-Inhibiting Catheters and Tubings” (priority 2008, published 2009).
# How the values were obtained:
# Pseudomonas aeruginosa = details: topical exogenous gNO at 200 ppm for extended periods of time
# [1] = tested on: cultured human dermal fibroblasts; details: gNO at 200 ppm for extended periods of time
# Escherichia coli = details: topical exogenous gNO at 200 ppm for extended periods of time
# Staphylococcus aureus = details: topical exogenous gNO at 200 ppm for extended periods of time
# Group B Streptococcus = details: topical exogenous gNO at 200 ppm for extended periods of time
# Candida albicans = details: topical exogenous gNO at 200 ppm for extended periods of time
# [2] = tested on: S. aureus and P. aeruginosa; details: exogenous gNO at 200 ppm
structure (smiles),measurement,setting,value
"[N]=O [gNO, nitric oxide]",growth of Pseudomonas aeruginosa,Pseudomonas aeruginosa,inhibited and prevented the growth
same,cytotoxic effects on cultured human dermal fibroblasts,[1],without any cytotoxic effects
same,growth of Escherichia coli,Escherichia coli,inhibited and prevented the growth
same,growth of Staphylococcus aureus,Staphylococcus aureus,inhibited and prevented the growth
same,growth of Group B Streptococcus,Group B Streptococcus,inhibited and prevented the growth
same,growth of Candida albicans,Candida albicans,inhibited and prevented the growth
same,time to clear nosocomial pneumonia caused by microbial pathogens,[2],about 6 hours
